Experiments:
DCAMKL-1 [1] = assay: siRNA knockdown of DCAMKL-1 in AsPC-1 pancreatic cancer cells, real-time RT-PCR; type: cell-based, human; settings: AsPC-1 cells
Description: (§1) Cell Culture: AsPC-1 and BxPC3 human pancreatic adenocarcinoma cell lines were obtained from the American Type Culture Collection and grown in Dulbecco's modified Eagle medium (DMEM) supplemented with 10% fetal bovine serum and 100 U/mL penicillin-streptomycin in a humidified chamber at 37° C. with 5% CO2.
(§2) Silencer RNA: DCAMKL-1 small interfering RNA (siRNA) (si-DCAMKL-1) sequence targeting the coding region of DCAMKL-1 (accession No. NM_004734; SEQ ID NO:1) ([…]tt (SEQ ID NO:3)) and scrambled siRNAs (si-Scr) not matching any of the human genes were obtained (Ambion Inc, Austin, Tex.) and transfected using siPORT™ NeoFX™ (Ambion, Inc).
Real-time Reverse Transcription-Polymerase Chain Reaction Analyses: Total RNA isolated from human pancreatic cancer cells or cells sorted from normal mouse pancreas were subjected to reverse transcription with Superscript II RNase H-Reverse Transcriptase and random hexanucleotide primers (Invitrogen, Carlsbad, Calif.). The complementary DNA (cDNA) was subsequently used to perform real-time polymerase chain reaction (PCR) by SYBR chemistry (SYBR Green I; Molecular Probes, Eugene, Oreg.) for specific transcripts using gene specific primers and Jumpstart Taq DNA polymerase (Sigma—Aldrich, St. Louis, Mo.). […] The changes in mRNA were expressed as fold change relative to control with ±SEM value.
miRNA Analysis: total RNA isolated from human pancreatic cancer cell lines or cells sorted from normal mouse pancreas was subjected to reverse transcription with Superscript II RNase H-Reverse Transcriptase and random hexanucleotide primers (Invitrogen). The cDNA was subsequently used to perform real-time PCR by SYBR chemistry (SYBR Green I; Molecular Probes) for pri-let-7a, pri-miR-144 and pri-miR-200a transcripts using specific primers and Jumpstart Taq DNA polymerase (Sigma—Aldrich). […] The changes in pri-miRNA were expressed as fold change relative to control with ±SEM values.

DCAMKL-1 [2] = assay: siRNA knockdown of DCAMKL-1 in BxPC3 pancreatic cancer cells, real-time RT-PCR; type: cell-based, human
Description: as §1, §2
Real-time Reverse Transcription-Polymerase Chain Reaction Analyses: Total RNA isolated from human pancreatic cancer cells or cells sorted from normal mouse pancreas were subjected to reverse transcription with Superscript II RNase H-Reverse Transcriptase and random hexanucleotide primers (Invitrogen, Carlsbad, Calif.). […] The changes in mRNA were expressed as fold change relative to control with ±SEM value.
miRNA Analysis: total RNA isolated from human pancreatic cancer cell lines or cells sorted from normal mouse pancreas was subjected to reverse transcription with Superscript II RNase H-Reverse Transcriptase and random hexanucleotide primers (Invitrogen). […] The changes in pri-miRNA were expressed as fold change relative to control with ±SEM values.

HCV subgenomic replicon = assay: HCV replication in GS5 cells (Huh7.5 with HCV subgenomic replicon); type: cell-based, hepatitis C virus; settings: 48 hours
Description: FIG. 61 illustrates that DCAMKL-1 is required for the HCV replication. A. siRNA against DCAMKL-1 (Si-DCAMKL1, 50 nM and 100 nM) or scrambled siRNA (SCR, 100 nM) were transfected into GS5 cells. Total RNAs were extracted and subjected to real-time quantitative PCR. The levels of HCV and DCAMKL-1 RNAs were considered arbitrary as one unit in untransfected GS5 cells (Cont). Actin mRNA in each sample was used as internal control for PCR. B. Western blot analysis of siRNAs tranfected and untransfected samples as indicated.
Induction of putative stem cell/pluripotency factors by HCV: Normal adult hepatocytes are fully differentiated cells and lack expression of pluripotency factors. However, these cells can be induced to proliferate rapidly after partial hepatectomy and can also be reprogrammed into stem-like cells by forced expression of a cocktail of transcription factors. Thus, the impact of HCV on expression pattern of stem/progenitor cell markers was investigated in GS5 cells, which are derived from hepatoma cell line (Huh7.5) and support constitutive replication of a subgenomic HCV replicon under G418 selection. The replicon expresses HCV nonstructural proteins NS3 through NS5B of the HCV-1a strain and green florescent protein (GFP)-NS5A chimera. Total lysates from parent Huh7.5 and GS5 cells were subjected to Western blot analysis (FIG. 59).
Putative intestinal stem cell marker DCAMKL1 is required for the HCV replication: The eccentric, punctate staining of HCV replication complexes consisting of most of the nonstructural proteins and cellular factors has been a puzzling question. It is known that these replication complexes associate with microtubules in order to replicate the HCV RNA. The DCAMKL1 protein, which binds and polymerizes tubulin into microtubule filaments, is considered as a putative marker for quiescent stem cells in the intestine, and its expression is increased in cancer stem cells. During confocal microscopy, most DCAMKL1 localization was consistently observed in the area containing replication complexes (indicated by NS5A-GFP) and high concentration of microtubules (FIG. 60). The perinuclear co-localization of DCAMKL1 with the NS5A-GFP (indicated by yellow stain) was also observed.

PICSCs [3] = assay: Growth and survival of PICSCs after drug treatment; type: cell-based, mouse; settings: siRNA transfection, 10 nM
Description: The PICSCs cells were treated with 100 μM drug (suprapharmacological dose) for 48 hours, and their growth and survival were evaluated. […] Moreover, the in vitro testing strategies allows for a mechanistic study of such compounds.

PICSCs [4] = assay: LIVE/DEAD Viability/Cytotoxicity Assay on PICSCs; type: cell-based, mouse; settings: 48 hours, single agent
Description: This Example is directed to stem cell assays utilizing PICSCs generated in accordance with the presently disclosed and claimed inventive concept(s). The PICSCs were generated as described herein above (i.e., transformation of NIH-3T3 cells with RBM3 gene, followed by transplantation into a nude mouse, then sorting of cells obtained from generated tumors utilizing DCAMKL-1).
The PICSCs were exposed to various compounds/anti-cancer agents, and cell viability assays were then performed using the LIVE/DEAD® Viability/Cytotoxicity Assay from Molecular Probes/Invitrogen (Eugene, Oreg.). The LIVE/DEAD® Viability/Cytotoxicity Assay is an assay that provides a two-color fluorescence cell viability that is based on the simultaneous determination of both live and dead cells.
Briefly, PICSCs cells were grown in a 96 well microtitre plate ([…], Newton, N.C.) to about 40% confluency and treated with anti-cancer agents/compounds for 48 hours. Subsequently, chromogenic substrates Calcein AM and Ethidium homodimer-1 (EthD-1) was added to the cells. Calcein AM is well retained within the live cells, producing uniform green fluorescence in live cells (measured at 515 nM). EthD-1 enters cells with damaged membranes and undergoes an enhancement of fluorescence upon binding to nucleic acids, thereby producing a bright red fluorescence in dead cells (measured at 617 nM). The fluorescence measurement was carried out using a microtitre plate reader (Synergy HT, BIO-TEK, Vinooski, Vt.).
In FIGS. 70-84, the PICSCs were treated with increasing concentrations of various compounds or combinations of compounds for 48 hours, and the data presented therein is represented as a % Dead/Live cells ratio following said treatment. […] Values in each figure are given as average±Standard Error Mean, and asterisks denote statistically significant differences (*p<0.01) compared with control.

Chain of DCAMKL-1 (O15075 other isoform, or with tags, fused parts or gaps): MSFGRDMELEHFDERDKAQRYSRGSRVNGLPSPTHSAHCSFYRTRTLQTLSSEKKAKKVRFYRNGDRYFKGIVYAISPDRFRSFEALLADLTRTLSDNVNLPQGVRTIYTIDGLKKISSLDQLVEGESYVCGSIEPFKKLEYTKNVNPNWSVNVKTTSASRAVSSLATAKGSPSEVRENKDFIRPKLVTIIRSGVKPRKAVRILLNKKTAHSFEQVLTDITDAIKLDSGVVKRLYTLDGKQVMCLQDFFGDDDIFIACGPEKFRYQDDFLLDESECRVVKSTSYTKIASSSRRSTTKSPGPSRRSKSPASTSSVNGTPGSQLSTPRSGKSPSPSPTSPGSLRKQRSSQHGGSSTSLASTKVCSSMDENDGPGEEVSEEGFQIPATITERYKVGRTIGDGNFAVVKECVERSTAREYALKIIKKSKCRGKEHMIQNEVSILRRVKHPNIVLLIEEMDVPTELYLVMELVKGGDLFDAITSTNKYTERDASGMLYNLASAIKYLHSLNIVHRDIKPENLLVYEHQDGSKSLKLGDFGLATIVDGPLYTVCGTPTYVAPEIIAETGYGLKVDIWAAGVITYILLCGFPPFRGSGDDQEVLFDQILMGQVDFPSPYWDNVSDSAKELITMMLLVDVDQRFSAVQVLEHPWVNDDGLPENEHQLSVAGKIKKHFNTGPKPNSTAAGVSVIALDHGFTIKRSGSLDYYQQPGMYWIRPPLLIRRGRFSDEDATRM

In the case of “si-DCAMKL-1: siRNA targeting the coding region of DCAMKL-1 (NM_004734), sequence GGGAGUGAGAACAAUCUAC (SEQ ID NO:3) (chemistry not given here; listed as Homo sapiens)”, the E-cadherin expression (DCAMKL-1 [1]) is reported as “upregulation”, the Notch-1 expression (DCAMKL-1 [1]) is reported as “significant and a dose dependent downregulation” and the “Slug mRNA expression” value (DCAMKL-1 [1]) is reported as “downregulation”. The “Snail mRNA expression” value (DCAMKL-1 [1]) was “downregulation”, the “Twist mRNA expression” value (DCAMKL-1 [1]) was “downregulation” and the ZEB1 expression (DCAMKL-1 [1]) was “downregulation”. The ZEB2 expression (DCAMKL-1 [1]) was “downregulation”, the c-Myc expression (DCAMKL-1 [1]) was “significant and a dose dependent downregulation” and the pri-miR-200a expression (DCAMKL-1 [1]) was “upregulation”. For the same substance, the “increase in pri-miR-144 miRNA expression” value (DCAMKL-1 [1]; compared to control and siSCR) was 2.5 fold, the “reduction of c-Myc mRNA expression” value (DCAMKL-1 [1]; compared to control and siSCR) was 50% and the “reduction in KRAS mRNA expression” value (DCAMKL-1 [1]; compared to control or siSCR) was 45%. For the same substance, the “reduction in Notch-1 mRNA” value (DCAMKL-1 [1]; compared to control or siSCR) was 50%, the “DCAMKL-1 mRNA expression” value (DCAMKL-1 [1]; compared to siSCR or untreated) was “decreases” and the DCAMKL-1 protein (DCAMKL-1 [1]; compared to siSCR or untreated) was “decreases”. The “induction of pri-let-7a miRNA” value (DCAMKL-1 [1]; real-time RT-PCR) was 3 fold, the “increase in pri-let-7a miRNA” value (DCAMKL-1 [2]; compared to control and siSCR) was 3 fold and the “Notch1 mRNA” value (DCAMKL-1 [2]; compared to siSCR or control) was “significant decrease”. For the same substance, the NS5B polymerase level (HCV subgenomic replicon; Western blot) was “decreases”, the “HCV RNA level” value (HCV subgenomic replicon; siRNA 50 nM and 100 nM) was “decreases” and the “expression of DCAMKL1” value (HCV subgenomic replicon; siRNA 50 nM and 100 nM) was “effectively inhibited”. For the same substance, the “neurite formation, cell growth and cell death of PICSCs” value (PICSCs [3]) was “inhibited neurite formation, suppressed cell growth and induced cell death” and the “PICSC cell death (% Dead/Live cells ratio)” value (PICSCs [4]) was “increasing levels of PICSC cell death”.

Source: patent US8936941B2, “Compositions useful for cancer detection and treatment, a cancer stem cell model, and methods of production and use thereof” (priority 2008, dated 2015)
